Experimental data as given in patent US6461997B1, “Triazole sulfones having herbicidal activity” (Monsanto Technology LLC, priority 1999, dated 2002).

Experiments:
[1] = system: STEME (common chickweed); assay: Pre-emergence herbicidal activity, cool season; assay type: in vivo, Stellaria media; conditions: lowest tested rate with 80% or greater inhibition; rates 300, 100, 30, 10 g/ha; about 14 days
Procedure, shortened: (§1)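 GR80 values derive from percent inhibition relative to untreated plants, read roughly 14 days after sowing and pre-emergence soil-surface treatment (compound in 50:50 acetone/water; rates typically 10, 30, 100, 300 g/ha). Warm-season weeds grew at 30/21° C day/night, cool-season ones at 18/13° C; an asterisk marks activity without reaching 80% at the highest rate.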

[2] = system: POLCO (wild buckwheat); assay: Pre-emergence herbicidal activity, cool season; assay type: in vivo, Polygonum convolvulus; conditions: lowest tested rate with 80% or greater inhibition; rates 300, 100, 30, 10 g/ha; about 14 days
Procedure, shortened: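 Under 18/13 °C (ALOMY, POLCO) or 30/21 °C (PANMI, DIGSA) day/night, pre-emergence soil-surface treatments at 300, 100, 30 and 10 g/ha were evaluated after roughly 14 days. GR80 reflects percent inhibition relative to untreated plants.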

[3] = system: AGSST (creeping bentgrass); assay: Pre-emergence herbicidal activity, cool season; assay type: in vivo, Agrostis stolonifera; conditions: GR80 = lowest tested rate (300, 100, 30, 10 g/ha) with 80% or greater inhibition; approx. 14 days after treating; 18/13° C.
Procedure, shortened: as §1

[4] = system: DATST (jimsonweed); assay: Pre-emergence herbicidal activity, warm season; assay type: in vivo, Datura stramonium; conditions: GR80 = lowest tested rate (300, 100, 30, 10 g/ha) with 80% or greater inhibition; approx. 14 days after treating; 30/21° C.
Experimental: (§2) Tables 5 to 8 summarize results of tests conducted as described below to determine the pre-emergence herbicidal activity, in the form of a GR80 value, of illustrative compounds of this invention. […] Compounds of the invention were typically applied at rates of 300, 100, 30, and 10 g/ha. Where herbicidal activity was evident but 80% inhibition was not achieved at the highest rate tested, an asterisk (*) is shown in the following tables.
(§3) The pre-emergence tests were conducted by the following procedure. Topsoil was sieved to pass through a 1.27 cm screen. Fertilizer was added to the topsoil and the mixture was then sterilized by heating. The topsoil mixture was placed in a pot and compacted to a depth of 1.0 to 1.25 cm from the top of the pot. Seeds of each of several monocotyledonous and dicotyledonous annual plant species were placed on top of the soil. Additional soil was subsequently placed over the seeds to level-fill the pot. A known amount of each test compound dissolved or suspended in an appropriate organic solvent was diluted with a 50:50 mix of acetone and water and applied to the surface of the soil. After treatment the plants were placed in a greenhouse where they received 0.64 cm of overhead irrigation. All subsequent watering consisted of a light overhead mist and/or subirrigation as needed for germination and growth. Tables 5 and 6 below relate to warm season plant species which were placed after pre-emergence treatment in a greenhouse with a 30/21° C. day/night temperature regime. Tables 7 and 8 below relates to cool season plant species placed after pre-emergence treatment in a greenhouse or growth chamber with an 18/13° C. day/night temperature regime.
(§4) Approximately 14 days after planting and treating, the plants were observed and herbicidal efficacy recorded as percent inhibition by comparison with untreated plants.
(§5) The plant species usually regarded as weeds which were utilized in the tests are identified in the tables below according to the following legend, in which “d” indicates a dicotyledonous species and “m” a monocotyledonous species. All monocotyledonous species included in the tests herein are grasses.

[5] = system: LAMPU (purple deadnettle); assay: Pre-emergence herbicidal activity, cool season; assay type: in vivo, Lamium purpureum; conditions: lowest tested rate with 80% or greater inhibition; rates 300, 100, 30, 10 g/ha; about 14 days
Procedure, shortened: as §1

[6] = system: GALAP (catchweed bedstraw); assay: Pre-emergence herbicidal activity, cool season; assay type: in vivo, Galium aparine; conditions: lowest tested rate with 80% or greater inhibition; rates 300, 100, 30, 10 g/ha; about 14 days
Procedure, shortened: as §1

[7] = system: SETVI (green foxtail); assay: Pre-emergence herbicidal activity, cool season; assay type: in vivo, Setaria viridis; conditions: GR80 = lowest tested rate (300, 100, 30, 10 g/ha) with 80% or greater inhibition; approx. 14 days after treating; 18/13° C.
Procedure, shortened: as §1

[8] = system: SASKR (russian thistle); assay: Pre-emergence herbicidal activity, cool season; assay type: in vivo, Salsola kali; conditions: lowest tested rate with 80% or greater inhibition; rates 300, 100, 30, 10 g/ha; about 14 days
Procedure, shortened: as §1

[9] = system: SINAR (wild mustard); assay: Pre-emergence herbicidal activity, cool season; assay type: in vivo, Sinapis arvensis; conditions: lowest tested rate with 80% or greater inhibition; rates 300, 100, 30, 10 g/ha; about 14 days
Procedure, shortened: as §1

[10] = system: VERPE (creeping speedwell); assay: Pre-emergence herbicidal activity, cool season; assay type: in vivo, Veronica persicaria; conditions: lowest tested rate with 80% or greater inhibition; rates 300, 100, 30, 10 g/ha; about 14 days
Procedure, shortened: as §1

[11] = system: ABUTH (velvetleaf); assay: Pre-emergence herbicidal activity, warm season; assay type: in vivo, Abutilon theophrasti; conditions: GR80 = lowest tested rate (300, 100, 30, 10 g/ha) with 80% or greater inhibition; approx. 14 days after treating; 30/21° C.
Experimental: as §2, §3, §4, §5

| Structure (SMILES) | Pre-emergence activity GR80, STEME [1] | Pre-emergence activity GR80, POLCO [2] | Pre-emergence activity (GR80) AGSST [3] [g/ha] | Pre-emergence activity (GR80) DATST [4] [g/ha] | Pre-emergence activity GR80, LAMPU [5] | Pre-emergence activity GR80, GALAP [6] | Pre-emergence activity (GR80) SETVI [7] [g/ha] | Pre-emergence activity GR80, SASKR [8] | Pre-emergence activity GR80, SINAR [9] | Pre-emergence activity GR80, VERPE [10] | Pre-emergence activity (GR80) ABUTH [11] [g/ha] |
| --- | --- | --- | --- | --- | --- | --- | --- | --- | --- | --- | --- |
| CCSC(F)(F)S(=O)(=O)c1ncn(C(=O)N(C)Cc2ccccc2)n1 [Example 56] | [empty] | [empty] | 100 | 300 | [empty] | [empty] | 100 | [empty] | [empty] | [empty] | – |
| CON(C)C(=O)n1cnc(S(=O)(=O)C(F)(F)Cl)n1 [Example 93] | [empty] | [empty] | – | – | [empty] | [empty] | – | [empty] | [empty] | 300 g/ha | 100 |
